Measurements: patent EP3800188A1, “SUBSTITUTED PYRAZOLOPYRIMIDINES AS IRAK4 INHIBITORS” (Bayer AG, priority 2019, dated 2021)

Legend:
[1] = 1 µM, pH 7.4
human IRAK4 = molecular target: T1, human IRAK4 (Homo sapiens, UniProt Q9NWZ3); assay: Human IRAK4 kinase activity inhibition assay (IRAK4 TR-FRET assay); assay type: biochemical; conditions: 1 mM ATP, GST-human IRAK4, average or median values
T1 construct: GST (N); made in house; host or cells: baculovirus-infected Hi5 (BTI-TN-5B1-4) insect cells
T1 sequence (Q9NWZ3 1-460): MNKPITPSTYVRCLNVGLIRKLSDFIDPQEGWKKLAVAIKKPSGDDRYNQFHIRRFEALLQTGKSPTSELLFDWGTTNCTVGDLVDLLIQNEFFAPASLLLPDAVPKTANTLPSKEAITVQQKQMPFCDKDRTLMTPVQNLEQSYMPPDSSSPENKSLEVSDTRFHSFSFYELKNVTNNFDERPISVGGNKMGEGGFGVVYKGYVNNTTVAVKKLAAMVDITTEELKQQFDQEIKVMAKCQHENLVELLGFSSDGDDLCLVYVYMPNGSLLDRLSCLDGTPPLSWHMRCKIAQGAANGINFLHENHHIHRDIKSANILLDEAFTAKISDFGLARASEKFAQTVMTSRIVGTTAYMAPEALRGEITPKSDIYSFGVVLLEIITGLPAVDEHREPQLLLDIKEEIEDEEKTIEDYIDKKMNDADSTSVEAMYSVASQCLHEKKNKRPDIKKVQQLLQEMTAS
Summary of the method: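 Signal was the 665/620 nm emission ratio from a europium anti-mouse-IgG, anti-phosphoserine antibody and streptavidin-XL665 complex formed over 1 h at 22°C. It was scaled between no-enzyme (100%) and no-compound (0%) wells. Beforehand, compounds (20 µM down to 0.073 nM, 11 points) sat 15 min with roughly 0.2 nM insect-cell-expressed GST-human IRAK4 before phosphorylation of a biotinylated peptide substrate.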

For `O=C1C[C@H](Nc2nc(N3CC(CC(=O)N4CC5CC(C4)O5)C3)c3cnn(-c4cccc(C(F)(F)F)c4)c3n2)CN1` [Example I-52, (4S)-4-[(4-{3-[2-(6-oxa-3-azabicyclo[3.1.1]heptan-3-yl)-2-oxoethyl]azetidin-1-yl}-1-[3-(trifluoromethyl)phenyl]-1H-pyrazolo[3,4-d]pyrimidin-6-yl)amino]pyrrolidin-2-one], the “CLblood, human microsomes” value [1] was < 0.01 (stable) L/h/kg, the “Fmax, human microsomes” value [1] was 100 (stable) % and the IC50 (human IRAK4) was 7.99 nM.
